Reference: article PMC5740381 (Antimicrobial Agents and Chemotherapy, 2017)
Where two headings read alike, the source gives them in different places.

Columns and labels:
Cathepsin B = target: T1, Cathepsin B (Homo sapiens, UniProt P07858); experiment: Human protease biochemical assay; details: read-out: Mean IC50 ± SD
T1 construct: purchased Sigma-Aldrich
Experimental: (§1) […]; catalog number M9771; Sigma-Aldrich), and 0.05 U/ml elastase (excitation wavelength = 370 nm, emission wavelength = 460 nm); (ii) for chymase, 0.4 M Tris, pH 8.0, 1.8 M NaCl, 9% dimethyl sulfoxide, 0.4 mM substrate (Suc-AAF-AMC; catalog number S8758; Sigma-Aldrich), and 0.063 U/ml chymase (excitation wavelength = 370 nm, emission wavelength = 460 nm); (iii) for cathepsin B, 50 mM MES (morpholineethanesulfonic acid), pH 6.0, 50 mM NaCl, 2 mM EDTA, 0.1% Triton X-100, 0.4 mM substrate (Z-RR-AMC; catalog number C5429; Sigma-Aldrich), and 1.7 μg/ml cathepsin B (excitation wavelength = 370 nm, emission wavelength = 460 nm); (iv and v) for chymotrypsin types II and VII, 50 mM Tris, pH 8, 10 mM CaCl2, 0.1% Triton X-100, 0.25 mM substrate (Suc-AAF-AMC; catalog number S8758; Sigma-Aldrich), and 0.5 nM chymotrypsin type II or type VII (excitation wavelength = 370 nm, emission wavelength = 460 nm); (vi) for kallikrein, 50 mM Tris, pH 7.4, 0.5 mM EDTA, 0.05% Tween 20, 150 mM NaCl, 0.35 mM substrate (H-Pro-Phe-Arg-AMC; catalog number I-1295; Bachem), and 2 nM kallikrein (excitation wavelength = 355 nm, emission wavelength = 460 nm); and (vii) for urokinase, 50 mM Tris, pH 7.4, 0.15 M NaCl, 0.5% Pluronic F-68, 0.2 mM substrate (pyro-Glu Arg-p-nitroanilide-HCl; catalog number S-2444; Diapharma), and 3 nM urokinase (absorbance at 405 nm).

Elastase = target: T2, Elastase (Homo sapiens, UniProt P08246); experiment: Human protease biochemical assay; details: read-out: Mean IC50 ± SD
T2 construct: purchased Sigma-Aldrich
Experimental: as §1

Urokinase = target: T3, Urokinase (Homo sapiens, UniProt P00749); experiment: Human protease biochemical assay; details: read-out: Mean IC50 ± SD
T3 construct: purchased Sigma-Aldrich
Experimental: as §1

[1] = tested on: HCV replicons containing proteases from 40 samples, genotypes 1 to 5; experiment: Transient replicon assay with patient proteases, all 40 samples; format: cell-based; details: Hepatitis C virus, 40 clinical samples
Excerpt: […]. Each of the NS3 gene sequences from genotypes 1, 2, and 4, with the exception of two genotype 2b sequences, was derived from serum or plasma from an HCV-infected patient by bulk PCR amplification, producing a population of sequences representing the viral quasispecies. Two genotype 2b sequences were synthesized based on the consensus sequences of the respective samples. One genotype 3a sequence was synthesized based on a consensus sequence from the sequences available in the Los Alamos HCV sequence database, and another genotype 3a sequence was a clonal sequence derived from a patient sample. The genotype 5a sequence (strain SA13) was synthesized based on the published sequence of the HCV isolate ([48]).
Transient replicons containing NS3 from clinical samples from HCV genotype 1a- and 1b-infected patients were described previously ([28]). For the transient replicons containing NS3/4A from samples from genotype 3a-infected patients, the first 251 amino acids of NS3 and the region encoding NS4A amino acids 21 to 32 (numbered relative to the NS4A coding region) from these HCV samples were cloned to replace the corresponding residues from the backbone of a genotype 1b Con1 shuttle vector. […]

[2] = tested on: HCV subgenomic stable replicon GT1a H77; format: cell-based, Hepatitis C virus; details: 0% human plasma, read-out: Mean EC50 ± SD
Excerpt: (§2) Five of these nine cell lines have been described previously, including those transfected with genotypes 1a H77, 1b Con1, 3a, 4a, and 6a ([28]). […] The genotype 2b and 6e NS3 sequences were each synthetically constructed based on a consensus sequence derived from the alignment of 15 genotype 2b and 4 genotype 6e sequences, respectively. All replicon constructs were bicistronic subgenomic replicons similar to those described by Bartenschlager and coworkers, and the replicon cell lines were generated by introducing these constructs into cells of an Huh-7 human hepatoma-derived cell line ([50]). The inhibitory effect of the PIs on HCV replication in replicon cells was determined in Dulbecco's modified Eagle medium containing 5% fetal bovine serum with or without 40% human plasma (Bioreclamation, Westbury, NY). The EC50s were determined using nonlinear regression curve fitting as described previously ([33]).

[3] = tested on: HCV subgenomic stable replicon GT1b Con1; format: cell-based, Hepatitis C virus; details: 0% human plasma, read-out: Mean EC50 ± SD
Excerpt: as §2

[4] = tested on: HCV subgenomic stable replicon GT2a JFH-1; format: cell-based, Hepatitis C virus; details: GT2a JFH-1 stable replicon, 0% human plasma; read-out: Mean EC50 ± SD
Excerpt: as §2

T2 sequence (P08246 30-247 limits assumed): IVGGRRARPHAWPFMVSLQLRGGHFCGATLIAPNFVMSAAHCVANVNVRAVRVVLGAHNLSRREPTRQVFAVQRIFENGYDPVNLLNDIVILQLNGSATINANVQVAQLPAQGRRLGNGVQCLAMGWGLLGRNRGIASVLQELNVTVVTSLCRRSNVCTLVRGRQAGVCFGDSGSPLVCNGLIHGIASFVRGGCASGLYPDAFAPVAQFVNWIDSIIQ

Structure (SMILES)	IC50 (Cathepsin B)	IC50 (Elastase)	IC50 (Urokinase)	EC50 ([1]; read-out: EC50 range, overall)	EC50 ([1]; read-out: Overall median EC50)	EC50 [2]	EC50 [3]	EC50 [4]
CC(C)(C)[C@@H]1NC(=O)O[C@@H]2CCC[C@H]2OC/C=C/C(F)(F)c2nc3ccccc3nc2O[C@@H]2C[C@@H](C(=O)N[C@]3(C(=O)NS(=O)(=O)C4(C)CC4)C[C@H]3C(F)F)N(C2)C1=O [Glecaprevir, (3aR,7S,10S,12R,21E,24aR)-7-tert-butyl-N-[(1R,2R)-2-(difluoromethyl)-1-{[(1-methylcyclopropyl)sulfonyl]carbamoyl}cyclopropyl]-20,20-difluoro-5,8-dioxo-2,3,3a,5,6,7,8,11,12,20,23,24a-dodecahydro-1H,10H-9,12-methanocyclopenta[18,19][1,10,17,3,6]trioxadiazacyclononadecino[11,12-b]quinoxaline-10-carboxamide]	> 200000 nM	> 200000 nM	> 200000 nM	0.05 to 3.8 nM	0.3 nM			
C=C[C@@H]1C[C@]1(NC(=O)[C@@H]1C[C@@H]2CN1C(=O)[C@H](C(C)(C)C)NC(=O)O[C@@H]1C[C@H]1CCCCCc1nc3ccc(OC)cc3nc1O2)C(=O)NS(=O)(=O)C1CC1 [Grazoprevir]						0.37 ± 0.05 nM	1 ± 0.17 nM	8.6 ± 3 nM
